Experimental data: paper PMC8771711, “Synthesis of Lasalocid-Based Bioconjugates and Evaluation of Their Anticancer Activity” (ACS Omega, 2022)

Tests used:
[1] = tested on: SW620, human metastatic colon cancer cell line; assay: MTT assay, cytotoxicity in SW620; assay type: cell-based; settings: for IC50: MTT, 72 h, mean ± SD; for SW620 SI (selectivity index): SI = IC50 HaCaT / IC50 SW620
Method: (§1) The human cell lines SW480 (primary colon cancer), SW620 (lymph node metastatic colon cancer from the same patient as primary cancer cells), PC3 (metastatic prostate cancer), and HaCaT (immortalized keratinocytes) were obtained from the American Type Culture Collection (ATCC, Rockville, USA). The SW480 and SW620 cells were grown in MEM (ThermoSci, USA), PC3 in RPMI 1640, and HaCaT in DMEM High Glucose (Biowest SAS, France) supplemented with 10% foetal bovine serum (FBS), HEPES (20 mM), and antibiotics (100 U mL^–1 of penicillin and 100 μg mL^–1 of streptomycin). The cells were incubated in a humidified incubator at 37 °C/5% CO2, until 80–90% confluence was reached.
(§2) The cell viability was assessed by using of MTT salt [3-(4,5-dimethylthiazol-2-yl)-2,5-diphenyltetrazolium bromide] converted by mitochondrial dehydrogenase, occurring in living cells. The cells were seeded in 96-well plates at a density of 1 × 10^4 cells per well and allowed to adhere for 24 h at 37 °C in a CO2 humidified incubator. Then, the medium was removed and a fresh medium with various concentrations of tested compounds (from 10 to 120 μM) was added. The untreated cells were used as the control.
(§3) After 72 h incubation, the medium was replaced with 200 μL per well of free serum medium containing 0.5 mg mL^–1 MTT and incubated for 4 h at 37 °C in a CO2 humidified incubator. Subsequently, the medium was removed and dimethyl sulfoxide with isopropanol (1:1) was added to dissolve the formazan crystals. The optical density was measured using a UVM 340 reader (ASYS Hitech GmbH, Austria) at a wavelength of 570 nm. The experiments were repeated three times. The cell viability was calculated as the percent of MTT reduced in treated cells versus control cells (untreated cells). The number of viable cells cultured without tested compounds was assumed as 100%. The decreased relative MTT level indicates decreased cell viability. The IC50 values were estimated using CompuSyn version 1.0.

[2] = tested on: PC3, human prostate cancer cell line; assay: MTT assay, cytotoxicity in PC3; assay type: cell-based; settings: for IC50: MTT, 72 h, mean ± SD; for PC3 SI (selectivity index): SI = IC50 HaCaT / IC50 PC3
Method: as §1, §2, §3

[3] = tested on: SW480, human primary colon cancer cell line; assay: MTT assay, cytotoxicity in SW480; assay type: cell-based; settings: for IC50: MTT, 72 h, mean ± SD; for SW480 SI (selectivity index): SI = IC50 HaCaT / IC50 SW480
Method: as §1, §2, §3

[4] = tested on: HaCaT, human immortalized keratinocyte cell line; assay: MTT assay, cytotoxicity in HaCaT; assay type: cell-based; settings: 72 h, mean ± SD, nontumor cells
Method: as §1, §2, §3

[5] = tested on: PC3 cells; assay: Annexin V-FITC/PI binding assay (flow cytometry) in PC3; assay type: cell-based, human; settings: IC50 concentration, 72 h
Method: The SW480, SW620, PC3, and HaCaT cells were cultured and harvested under the conditions mentioned in the Section 4.5 and seeded in 12-well plates (1 × 10^5 cells per well). […] The apoptotic effect was performed using the Annexin V-FITC/propidium iodide (PI) apoptosis assay kit (Becton Dickinson, Pharmingen), according to the manufacturer’s instructions, and analyzed by flow cytometry (Becton Dickinson). The cells which were Annexin V-FITC-positive and PI-negative were identified as early apoptotic and both Annexin V-FITC- and PI-positive as late apoptotic or necrotic. The experiment was repeated three times.

[6] = tested on: three cancer cell lines (SW480, SW620, PC3); assay: MTT assay, span over the three cancer cell lines; assay type: cell-based, human; settings: for IC50: Homo sapiens, MTT, 72 h; for SI, span over three cancer cell lines: SI = IC50 HaCaT / IC50 cancer cell line
Method: as §1, §2, §3

Compound | IC50 ([1]; Homo sapiens, SW-620) [µM] | SW620 SI (selectivity index) [1] | IC50 ([2]; Homo sapiens) [µM] | PC3 SI (selectivity index) [2] | IC50 ([3]; Homo sapiens, SW480) [µM] | SW480 SI (selectivity index) [3] | IC50 ([4]; Homo sapiens, HaCaT) [µM] | percentage of late apoptotic PC3 cells [5] [%] | percentage of necrotic PC3 cells [5] [%] | IC50 [1] [µM] | IC50 [2] [µM] | IC50 [3] [µM] | IC50 [4] [µM] | IC50 [6] [nM] | SI, span over three cancer cell lines [6]
O=c1[nH]cc(F)c(=O)[nH]1 [5FU, 5-fluorouracil, reference compound] | 39 ± 1.2 | 1.3 | 11 ± 0.97 | 4.7 | 43 ± 3.1 | 1.2 | 52 ± 1.6 |  |  |  |  |  |  |  | 
C=C(C)[C@@H]1CC[C@]2(C(=O)O)CC[C@]3(C)[C@H](CC[C@@H]4[C@@]5(C)CC[C@H](O)C(C)(C)[C@@H]5CC[C@]43C)[C@@H]12 [BET, betulinic acid, reference compound] | 65 ± 3.7 | 1.7 | 71 ± 5.9 | 1.5 | 105 ± 7 | 1.0 | 108 ± 1.3 |  |  |  |  |  |  |  | 
O=c1[nH]c(=O)n(CCCCBr)cc1F [Compound 1] | 75 ± 2.7 | 2.4 | 308 ± 5.2 | 0.6 | 36 ± 0.79 | 5.0 | 179 ± 4.3 |  |  |  |  |  |  |  | 
O=c1[nH]c(=O)n(CCCCCCBr)cc1F [Compound 2, 1-(6-Bromohexyl)-5-fluorouracil] | 36 ± 0.83 | 6.2 | 3.1 ± 0.15 | 73 | 103 ± 3.4 | 2.2 | 224 ± 2.8 |  |  |  |  |  |  |  | 
O=c1[nH]c(=O)n(CCOCCBr)cc1F [Compound 3, 1-(2-(2-Bromoethoxy)ethyl)-5-fluorouracil] | 47 ± 3.8 | 2.2 | 42 ± 2.3 | 2.5 | 55 ± 3.5 | 1.9 | 104 ± 2.2 |  |  |  |  |  |  |  | 
O=c1cc(CCl)occ1O [Compound 4] | 20 ± 2.6 | 2.0 | 20 ± 1.5 | 2.0 | 28 ± 1.8 | 1.4 | 39 ± 0.45 |  |  |  |  |  |  |  | 
CC[C@@H](C(=O)[C@@H](C)[C@@H](O)[C@H](C)CCc1ccc(C)c(O)c1C(=O)OCCCCCCBr)[C@H]1O[C@](CC)([C@H]2CC[C@](O)(CC)[C@H](C)O2)C[C@@H]1C [Compound 5] | 34 ± 1.4 | 1.5 | 18 ± 0.98 | 2.8 | 42 ± 1.6 | 1.2 | 50 ± 0.34 |  |  |  |  |  |  |  | 
C=C(C)[C@@H]1CC[C@]2(C(=O)OCCCCCCOC(=O)c3c(CC[C@@H](C)[C@H](O)[C@H](C)C(=O)[C@H](CC)[C@H]4O[C@](CC)([C@H]5CC[C@](O)(CC)[C@H](C)O5)C[C@@H]4C)ccc(C)c3O)CC[C@]3(C)[C@H](CC[C@@H]4[C@@]5(C)CC[C@H](O)C(C)(C)[C@@H]5CC[C@]43C)[C@@H]12 [Compound 6, LAS–Betulinic Acid Conjugate] | 40 ± 2.1 | 0.4 | 200 ± 1.8 | 0.1 | 320 ± 8.8 | 0.05 | 15 ± 0.59 |  |  |  |  |  |  |  | 
CC[C@@H](C(=O)[C@@H](C)[C@@H](O)[C@H](C)CCc1ccc(C)c(O)c1C(=O)OCCCCn1cc(F)c(=O)[nH]c1=O)[C@H]1O[C@](CC)([C@H]2CC[C@](O)(CC)[C@H](C)O2)C[C@@H]1C [Compound 8, LAS–5-Fluorouracil Conjugate] | 14 ± 1 | 2.4 | 3.6 ± 0.08 | 9.2 | 67 ± 1.2 | 0.5 | 33 ± 3.4 | 33.16 | 34.88 |  |  |  |  |  | 
CC[C@@H](C(=O)[C@@H](C)[C@@H](O)[C@H](C)CCc1ccc(C)c(O)c1C(=O)OCCCCCCn1cc(F)c(=O)[nH]c1=O)[C@H]1O[C@](CC)([C@H]2CC[C@](O)(CC)[C@H](C)O2)C[C@@H]1C [Compound 9, LAS–5-Fluorouracil Conjugate] | 55 ± 1.5 | 0.8 | 36 ± 0.79 | 1.2 | 66 ± 2.5 | 0.7 | 44 ± 1.8 |  |  |  |  |  |  |  | 
CC[C@@H](C(=O)[C@@H](C)[C@@H](O)[C@H](C)CCc1ccc(C)c(O)c1C(=O)OCCOCCn1cc(F)c(=O)[nH]c1=O)[C@H]1O[C@](CC)([C@H]2CC[C@](O)(CC)[C@H](C)O2)C[C@@H]1C [Compound 10, LAS–5-Fluorouracil Conjugate] | 11 ± 1.4 | 1.1 | 12 ± 0.13 | 1.0 | 22 ± 2.2 | 0.5 | 12 ± 0.59 |  |  |  |  |  |  |  | 
CC[C@@H](C(=O)[C@@H](C)[C@@H](O)[C@H](C)CCc1ccc(C)c(O)c1C(=O)OC[C@H]1O[C@@H](n2cc(F)c(=O)[nH]c2=O)C[C@@H]1O)[C@H]1O[C@](CC)([C@H]2CC[C@](O)(CC)[C@H](C)O2)C[C@@H]1C [Compound 11, LAS–Floxuridine Conjugate] | 19 ± 2 | 2.6 | 13 ± 1.9 | 3.8 | 31 ± 1.2 | 1.6 | 50 ± 0.59 |  |  |  |  |  |  |  | 
COc1cccc2c1C(=O)c1c(O)c3c(c(O)c1C2=O)C[C@@](O)(C(=O)CO)C[C@@H]3O[C@H]1C[C@H](N)[C@H](O)[C@H](C)O1 [DOX, doxorubicin, reference compound] |  |  | 0.59 ± 0.02 |  | 0.75 ± 0.1 |  | 0.29 ± 0.1 |  |  |  |  |  |  |  | 
O=C(CCCCCBr)[c-]1cccc1.[Fe+2].c1cc[cH-]c1 [FER, (6-bromo-1-oxohexyl)ferrocene, reference compound] |  | 2.1 |  | 1.9 |  | 1.9 |  |  |  | 55 ± 0.7 | 59 ± 0.78 | 61 ± 0.98 | 115 ± 0.95 |  | 
O=c1[nH]c(=O)n([C@H]2C[C@H](O)[C@@H](CO)O2)cc1F [FLO, floxuridine, reference compound] | 8.8 ± 0.69 | 4.3 | 14 ± 0.57 | 2.7 | 16 ± 1.2 | 2.4 | 38 ± 0.72 |  |  |  |  |  |  |  | 
Nc1ccn([C@@H]2O[C@H](CO)[C@@H](O)C2(F)F)c(=O)n1 [GEM, gemcitabine, reference compound] | 3.4 ± 0.65 | 0.4 | 0.14 ± 0.02 | 11 | 1.2 ± 0.05 | 1.3 | 1.5 ± 0.05 |  |  |  |  |  |  | 140 to 3400 | 0.4–11
O=c1cc(CO)occ1O [KOJ, kojic acid, reference compound] | 94 ± 4 | 2.4 | 56 ± 3.3 | 4.0 | 119 ± 2.8 | 1.9 | 225 ± 7.1 |  |  |  |  |  |  |  | 
CC[C@@H](C(=O)[C@@H](C)[C@@H](O)[C@H](C)CCc1ccc(C)c(O)c1C(=O)O)[C@H]1O[C@](CC)([C@H]2CC[C@](O)(CC)[C@H](C)O2)C[C@@H]1C [LAS, lasalocid] | 6.1 ± 0.28 | 2.6 | 1.4 ± 0.05 | 11 | 7.2 ± 0.79 | 2.2 | 16 ± 1.9 |  |  |  |  |  |  | 1400 to 7200 | 2.2–11
BrCCC[P+](c1ccccc1)(c1ccccc1)c1ccccc1.[Br-] [TPP, (3-bromopropyl)triphenylphosphonium bromide, reference compound] | 39 ± 2.5 | 0.7 | 31 ± 0.98 | 0.8 | 46 ± 1.1 | 0.6 | 26 ± 0.96 |  |  |  |  |  |  |  | 
